In PMC11017246, “Discovery of GLPG2737, a Potent Type 2 Corrector of CFTR for the Treatment of Cystic Fibrosis in Combination with a Potentiator and a Type 1 Co-corrector” (Journal of Medicinal Chemistry, 2024):
Read-outs that look alike come from different tables or passages of the source.

Columns and labels:
[1] = Hepatocyte stability, mouse; format: in vitro ADME; details: mouse hepatocytes
Experimental: (§1) The hepatocyte stability assay was performed by incubation of test compound at 1 μM, 0.03% DMSO in modified Krebs–Henseleit buffer with suspension of pooled cryopreserved hepatocytes (BioIVT, Hicksville, NY, USA) from mouse, rat, dog, or human (BioIVT, Hicksville, NY, USA) at 0.5 million viable hepatocytes/mL. Before adding the hepatocytes (time zero) and after 10, 20, 45, 90, 120, and 180 min of incubation (n = 2) at 37 °C while gently shaking, the reaction was stopped and proteins were precipitated with an excess of acetonitrile containing an internal standard. The samples were mixed, centrifuged, and filtered, and the supernatant was analyzed by liquid chromatography–mass spectrometry/mass spectrometry (LC–MS/MS). The instrument responses (peak areas/IS peak areas) were referenced to the zero-time point samples (considered as 100%) in order to determine the percentage of compound remaining.

[2] = Measured pKa (potentiometric and UV methods); format: physicochemical; details: measured at Charles River
hERG = hERG (Homo sapiens, UniProt Q12809); assay: hERG manual patch clamp test; format: cell-based
hERG, sequence (Q12809 whole entry): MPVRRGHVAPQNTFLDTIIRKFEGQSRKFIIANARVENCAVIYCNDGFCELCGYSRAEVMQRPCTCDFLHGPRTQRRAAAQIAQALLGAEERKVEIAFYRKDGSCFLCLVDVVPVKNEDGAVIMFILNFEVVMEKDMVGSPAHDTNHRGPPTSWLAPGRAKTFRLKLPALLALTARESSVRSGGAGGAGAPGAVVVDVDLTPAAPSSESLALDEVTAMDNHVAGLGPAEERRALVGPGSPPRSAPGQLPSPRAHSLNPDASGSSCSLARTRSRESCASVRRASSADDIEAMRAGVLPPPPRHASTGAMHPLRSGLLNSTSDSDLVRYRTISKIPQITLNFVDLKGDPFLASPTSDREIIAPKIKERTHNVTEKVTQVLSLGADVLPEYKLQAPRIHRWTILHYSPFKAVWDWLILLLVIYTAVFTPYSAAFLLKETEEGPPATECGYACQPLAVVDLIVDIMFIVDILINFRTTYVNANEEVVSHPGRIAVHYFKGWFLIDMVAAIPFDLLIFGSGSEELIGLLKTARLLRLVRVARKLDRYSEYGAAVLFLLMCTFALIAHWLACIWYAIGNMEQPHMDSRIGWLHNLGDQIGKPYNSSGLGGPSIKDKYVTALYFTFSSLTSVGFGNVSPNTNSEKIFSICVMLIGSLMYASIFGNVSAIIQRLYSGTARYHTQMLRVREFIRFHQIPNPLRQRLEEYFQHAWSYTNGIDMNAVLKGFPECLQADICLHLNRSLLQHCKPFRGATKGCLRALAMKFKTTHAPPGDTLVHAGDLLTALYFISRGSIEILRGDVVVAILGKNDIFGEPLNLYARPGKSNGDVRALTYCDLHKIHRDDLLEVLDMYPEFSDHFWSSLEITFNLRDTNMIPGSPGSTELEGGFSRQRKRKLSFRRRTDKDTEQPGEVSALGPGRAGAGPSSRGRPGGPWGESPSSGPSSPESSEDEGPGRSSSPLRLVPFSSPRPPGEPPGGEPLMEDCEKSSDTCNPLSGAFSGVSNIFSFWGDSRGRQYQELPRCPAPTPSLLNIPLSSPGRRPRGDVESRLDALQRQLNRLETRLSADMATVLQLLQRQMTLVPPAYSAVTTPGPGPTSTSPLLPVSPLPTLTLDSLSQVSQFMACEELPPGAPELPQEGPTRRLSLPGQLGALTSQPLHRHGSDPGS

[3] = Liver microsomal stability, monkey; format: in vitro ADME; details: matrix not given, read-out: Clintr,unbound monkey (converted)
Experimental: The microsomal stability assay was performed by incubation of test compound at 1 μM, 0.2% DMSO in phosphate buffer with microsomes (0.5 mg/mL) from mouse, rat, dog, or human (Xeno-Tech, Kansas City, KS, USA), and cofactors with final concentrations of 0.6 U/mL glucose-6- phosphate dehydrogenase, 3.3 mM MgCl2, 3.3 mM glucose-6-phosphate, and 1.3 mM nicotinamide adenine dinucleotide phosphate (NADP)+. Before addition of the microsomes (time zero) and after 30 min of incubation at 37 °C with shaking, the reaction was stopped, and proteins were precipitated with an excess of acetonitrile containing an internal standard. The samples were mixed, centrifuged, and filtered, and the supernatant was analyzed by liquid chromatography–mass spectrometry/mass spectrometry (LC–MS/MS). […] In vitro unbound intrinsic clearance (CLint,u) was calculated from the half-life using the following equations: [drawing 1] […]
Equilibrium dialysis is a technique used to measure microsomal binding. […] Each compound was analyzed in duplicate for 4 h at 37 °C. At the end of incubation, both chambers were sampled and analyzed by LC-MS/MS. The unbound microsomal fraction (fu, mic) was calculated as the concentration in buffer divided by the total concentration in the microsomal side. […]

[4] = Hepatocyte stability, monkey; format: in vitro ADME; details: monkey hepatocytes
Experimental: as §1

PK mouse = format: in vivo
[5] = Liver microsomal stability, human; format: in vitro ADME; details: human; matrix not given; read-out: Clintr,unbound human (converted)
Experimental: The microsomal stability assay was performed by incubation of test compound at 1 μM, 0.2% DMSO in phosphate buffer with microsomes (0.5 mg/mL) from mouse, rat, dog, or human (Xeno-Tech, Kansas City, KS, USA), and cofactors with final concentrations of 0.6 U/mL glucose-6- phosphate dehydrogenase, 3.3 mM MgCl2, 3.3 mM glucose-6-phosphate, and 1.3 mM nicotinamide adenine dinucleotide phosphate (NADP)+. Before addition of the microsomes (time zero) and after 30 min of incubation at 37 °C with shaking, the reaction was stopped, and proteins were precipitated with an excess of acetonitrile containing an internal standard. The samples were mixed, centrifuged, and filtered, and the supernatant was analyzed by liquid chromatography–mass spectrometry/mass spectrometry (LC–MS/MS). The instrument responses (peak areas/IS peak areas) were referenced to the zero-time point samples (considered as 100%) to determine the percentage of compound remaining. In vitro unbound intrinsic clearance (CLint,u) was calculated from the half-life using the following equations: [drawing 1] [drawing 2] To take into account nonspecific binding, scaled CLint values were corrected with the fraction unbound in microsomes (fu, mic). [drawing 3]
Equilibrium dialysis is a technique used to measure microsomal binding. Briefly, the assay was performed in a 96-well Teflon dialysis unit (Dialysis Device), where each well consists of two chambers separated by a dialysis membrane (membrane strips, MW cutoff 12–14 kDa, HTDialysis). Inactivated liver microsomes (pooled human liver microsomes, Xenotech, protein concentration of 0.5 mg/mL) spiked with a compound (1 μM final concentration, 0.5% DMSO) were added to one chamber and buffer solution (50 mM PBS Buffer) was added to the other side of the well. Each compound was analyzed in duplicate for 4 h at 37 °C. At the end of incubation, both chambers were sampled and analyzed by LC-MS/MS. The unbound microsomal fraction (fu, mic) was calculated as the concentration in buffer divided by the total concentration in the microsomal side. Positive controls included in this assay are terfenadine and verapamil.

[6] = In vitro micronucleus test; format: cell-based
CYP1A2 = biological target: T1, CYP1A2 (Homo sapiens, UniProt P05177); assay: CYP reversible inhibition in HLM, CYP1A2; format: in vitro ADME; details: probe phenacetin
T1 construct: tissue BD Gentest; host or cells: human liver microsomes
T1 sequence (P05177 1-516): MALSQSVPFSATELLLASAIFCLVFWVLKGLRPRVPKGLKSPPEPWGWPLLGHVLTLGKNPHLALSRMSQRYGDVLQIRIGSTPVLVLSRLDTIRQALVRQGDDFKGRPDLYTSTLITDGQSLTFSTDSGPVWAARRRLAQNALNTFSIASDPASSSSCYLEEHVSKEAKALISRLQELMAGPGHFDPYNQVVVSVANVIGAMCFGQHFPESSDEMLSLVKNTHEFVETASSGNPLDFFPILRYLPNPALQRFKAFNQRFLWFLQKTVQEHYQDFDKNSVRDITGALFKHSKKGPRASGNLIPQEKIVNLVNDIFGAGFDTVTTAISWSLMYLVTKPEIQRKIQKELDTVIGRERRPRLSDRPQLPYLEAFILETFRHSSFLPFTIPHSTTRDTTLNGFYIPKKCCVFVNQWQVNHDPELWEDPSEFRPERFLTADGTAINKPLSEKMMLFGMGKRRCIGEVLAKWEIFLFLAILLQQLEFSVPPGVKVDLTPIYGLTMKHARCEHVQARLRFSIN
Experimental: (§2) Test compounds were diluted in methanol and then added to mixture containing 50 mM potassium phosphate buffer, pH 7.4, human liver microsomes (BD Gentest) and probe substrate. After prewarming for 5 min at 37 °C, the reaction was started by adding cofactor mix (7.65 mg/mL glucose-6-phosphate, 1.7 mg/mL NADP, 6 U/mL of glucose-6-phosphate dehydrogenase), resulting in seven final concentrations of test compounds in the range 0.14–100 μM (2% methanol). Isoform specific conditions regarding probe substrate and microsomal protein concentrations are available in Table 2. Final concentrations of cofactor mix components were as follows: 1.56 mg/mL glucose-6-phosphate, 0.34 mg/mL NADP, and 1.2 U/mL glucose-6-phosphate dehydrogenase. After incubation at 37 °C, the reaction was terminated with acetonitrile:methanol (2:1) solution with internal standard. Samples were centrifuged, and the supernatant fractions were analyzed by LC-MS/MS. The instrument responses (test compounds and internal standard peak areas) were referenced to those for solvent controls (assumed as 100%) in order to determine the percentage reduction in probe metabolism. Percent of control activity vs concentration plots were generated and fitted using GraphPad Prism software to generate IC50.

CYP2D6 = biological target: T2, CYP2D6 (Homo sapiens, UniProt P10635); assay: CYP reversible inhibition in HLM, CYP2D6; format: in vitro ADME; details: probe dextromethorphan
T2 construct: tissue BD Gentest; host or cells: human liver microsomes
T2 sequence (P10635 whole entry): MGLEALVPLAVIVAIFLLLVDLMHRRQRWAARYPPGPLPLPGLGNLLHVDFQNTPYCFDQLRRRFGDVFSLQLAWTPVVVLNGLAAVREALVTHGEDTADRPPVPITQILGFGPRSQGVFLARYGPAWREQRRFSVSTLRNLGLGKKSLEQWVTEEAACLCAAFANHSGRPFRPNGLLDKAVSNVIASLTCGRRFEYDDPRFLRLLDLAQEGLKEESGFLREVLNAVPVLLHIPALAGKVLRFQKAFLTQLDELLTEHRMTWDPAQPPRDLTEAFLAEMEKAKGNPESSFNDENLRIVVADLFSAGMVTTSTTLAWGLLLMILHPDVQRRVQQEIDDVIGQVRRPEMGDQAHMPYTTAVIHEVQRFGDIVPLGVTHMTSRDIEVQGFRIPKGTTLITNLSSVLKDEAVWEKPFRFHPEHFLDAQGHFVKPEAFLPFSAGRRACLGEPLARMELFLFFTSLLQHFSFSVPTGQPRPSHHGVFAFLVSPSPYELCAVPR
Experimental: as §2

(h)H1 = biological target: T3, (h)H1 (Homo sapiens, UniProt P35367); assay: Radioligand binding, (h)H1 (Eurofins panel); details: read-out: IC50, inhibition of radioligand binding to (h)H1
T3 construct: purchased Eurofins
T3 sequence (P35367 whole entry): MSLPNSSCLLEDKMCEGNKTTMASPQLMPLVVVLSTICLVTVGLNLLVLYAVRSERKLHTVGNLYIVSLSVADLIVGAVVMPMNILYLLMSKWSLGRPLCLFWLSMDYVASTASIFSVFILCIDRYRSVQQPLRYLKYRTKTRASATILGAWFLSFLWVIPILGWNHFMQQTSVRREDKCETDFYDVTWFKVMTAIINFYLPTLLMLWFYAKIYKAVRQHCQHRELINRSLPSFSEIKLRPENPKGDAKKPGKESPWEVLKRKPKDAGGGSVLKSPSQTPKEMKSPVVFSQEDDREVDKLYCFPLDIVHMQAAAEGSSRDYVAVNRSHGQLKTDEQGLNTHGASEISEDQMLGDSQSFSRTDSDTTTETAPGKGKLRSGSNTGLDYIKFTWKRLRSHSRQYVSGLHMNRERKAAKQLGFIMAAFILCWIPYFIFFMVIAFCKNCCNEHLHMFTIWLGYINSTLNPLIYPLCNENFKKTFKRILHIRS

Hepatocyte stability: %LBF mouse [1]: 24 %LBF
Hepatocyte stability: predicted hepCl mouse ([1]; 1 µM): 31.7 mL/min/kg
pKa ([2]; UV method, read-out: measured acylsulfonamyl pKa): 4.74
pKa ([2]; UV method, read-out: measured piperidine pKa): 8.51
pKa ([2]; potentiometric method, read-out: measured acylsulfonamyl pKa): 4.96
pKa ([2]; potentiometric method, read-out: measured piperidine pKa): 8.42
CLint scaled at 1 μM [3]: 347 mL/min/kg
Hepatocyte stability: %LBF monkey [4]: 65 %LBF
Hepatocyte stability: predicted hepCl monkey ([4]; 1 µM): 28.8 mL/min/kg
F (%) mouse (PK mouse; 5 mg/kg po): 71.3%
Vd (PK mouse; plasma, 1 mg/kg iv, read-out: Vss mouse): 1.27 L/kg
half-life (PK mouse; plasma, 1 mg/kg iv, read-out: t1/2 iv mouse (converted)): 3.22 h
clearance (PK mouse; plasma, iv, 1 mg/kg, 1 mg/kg iv, read-out: Clp mouse (converted)): 4.67 mL/min/kg
Unbound clearance (PK mouse; plasma, iv, 1 mg/kg, 1 mg/kg iv, unbound clearance, read-out: Cl.u mouse (converted)): 1110 mL/min/kg
CLint scaled at 1 μM [5]: 66.7 mL/min/kg
IC50 (CYP1A2): > 100 µM
IC50 (CYP2D6): > 100 µM
IC50 ((h)H1): 8 µM
Compound: COC1CCN(C2CCN(c3cc(C(=O)NS(=O)(=O)N(C)C)nc4c3c(C3CCC3)nn4-c3ccc(F)cc3)CC2)CC1 [Compound 52, 3-Cyclobutyl-N-(N,N-dimethylsulfamoyl)-1-(4-fluorophenyl)-4-(4-methoxy-[1,4′-bipiperidin]-1′-yl)-1H-pyrazolo[3,4-b]pyridine-6-carboxamide]
hERG inhibition (hERG): No significant inhibition
clastogenicity / aneugenicity [6]: not mutagenic, clastogenic, or aneugenic
mutagenicity (Ames II test): not mutagenic
